Calls of active or inactive are those of the source. No cut-off for these calls is given here.
What was measured:
[1] = biological target: Amyloid-beta precursor protein (Homo sapiens) (UniProt P05067); assay: Inhibition of HFIP-induced amyloid beta (1 to 42 residues) (unknown origin) aggregation at 1:1 protein to compound ratio preincubated for 15 mins followed by HFIP addition measured after 40 mins by ThT fluorescence assay relative to control
[2] = biological target: Amyloid-beta precursor protein (Homo sapiens) (UniProt P05067); assay: Inhibition of HFIP-induced amyloid beta (1 to 42 residues) (unknown origin) aggregation at 1:0.25 protein to compound ratio preincubated for 15 mins followed by HFIP addition measured after 40 mins by ThT fluorescence assay relative to control
[3] = biological target: Amyloid-beta precursor protein (Homo sapiens) (UniProt P05067); assay: Inhibition of HFIP-induced amyloid beta (1 to 42 residues) (unknown origin) aggregation at 1:0.5 protein to compound ratio preincubated for 15 mins followed by HFIP addition measured after 40 mins by ThT fluorescence assay
[4] = biological target: Amyloid-beta precursor protein (Homo sapiens) (UniProt P05067); assay: Inhibition of HFIP-induced amyloid beta (1 to 42 residues) (unknown origin) aggregation at 1:0.75 protein to compound ratio preincubated for 15 mins followed by HFIP addition measured after 40 mins by ThT fluorescence assay
[5] = biological target: Amyloid-beta precursor protein (Homo sapiens) (UniProt P05067); assay: Inhibition of HFIP-induced amyloid beta (1 to 42 residues) (unknown origin) aggregation at 1:1 protein to compound ratio preincubated for 15 mins followed by HFIP addition measured after 40 mins by turbidity assay relative to control
[6] = biological target: Amyloid-beta precursor protein (Homo sapiens) (UniProt P05067); assay: Inhibition of HFIP-induced amyloid beta (1 to 42 residues) (unknown origin) aggregation at 1:1 protein to compound ratio preincubated for 15 mins followed by HFIP addition measured after 40 mins by ANS extrinsic fluorescence assay relative to control
[7] = biological target: Amyloid-beta precursor protein (Homo sapiens) (UniProt P05067); assay: Inhibition of HFIP-induced amyloid beta (1 to 42 residues) (unknown origin) aggregation at 1:1 protein to compound ratio preincubated for 15 mins followed by HFIP addition measured after 40 mins by silver staining-based native PAGE assay
[8] = Cytotoxicity against human SH-SY5Y cells assessed as decrease in cell viability after 24 hrs by MTT assay; assay type: toxicity, cell-based
[9] = Neuroprotective activity against amyloid beta (1 to 42 residues)-induced toxicity in human SH-SY5Y cells assessed as cell viability at 5 to 20 uM after 3 days by MTT assay (reference value: 28%); assay type: functional
[10] = biological target: Amyloid-beta precursor protein (Homo sapiens) (UniProt P05067); assay: Inhibition of HFIP-induced amyloid beta (1 to 42 residues) (unknown origin) aggregation assessed as decrease in levels of higher aggregates at 1:1 protein to compound ratio preincubated for 15 mins followed by HFIP addition measured after 40 mins by silver staining-based native PAGE assay

Sequence of Amyloid-beta precursor protein (Homo sapiens) (P05067 whole entry, the tested form may be a part): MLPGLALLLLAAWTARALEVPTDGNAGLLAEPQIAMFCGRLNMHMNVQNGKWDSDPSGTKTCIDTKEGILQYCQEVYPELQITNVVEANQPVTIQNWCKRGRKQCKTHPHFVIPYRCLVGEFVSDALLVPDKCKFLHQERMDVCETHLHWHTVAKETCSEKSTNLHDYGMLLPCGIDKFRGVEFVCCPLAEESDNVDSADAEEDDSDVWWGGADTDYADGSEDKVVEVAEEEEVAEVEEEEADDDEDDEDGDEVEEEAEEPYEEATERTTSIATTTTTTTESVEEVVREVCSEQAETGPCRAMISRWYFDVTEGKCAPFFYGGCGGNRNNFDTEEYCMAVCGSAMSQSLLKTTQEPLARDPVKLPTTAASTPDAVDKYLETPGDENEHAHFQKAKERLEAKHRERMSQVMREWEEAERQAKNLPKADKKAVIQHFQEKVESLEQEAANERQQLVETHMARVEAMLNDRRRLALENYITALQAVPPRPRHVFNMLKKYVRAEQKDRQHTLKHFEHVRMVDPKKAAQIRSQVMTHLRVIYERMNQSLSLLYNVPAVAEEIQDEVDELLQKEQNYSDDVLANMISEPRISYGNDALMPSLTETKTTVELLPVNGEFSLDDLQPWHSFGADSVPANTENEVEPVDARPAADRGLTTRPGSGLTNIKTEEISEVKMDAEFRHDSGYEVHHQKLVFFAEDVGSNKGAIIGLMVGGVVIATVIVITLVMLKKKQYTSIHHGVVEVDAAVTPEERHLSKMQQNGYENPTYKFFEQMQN

inhibition [1] [%]	inhibition [2] [%]	inhibition [3]	inhibition [4]	inhibition [5] [%]	inhibition [6] [%]	inhibition [7]	inhibition [10]	SMILES	IC50 at 24 h ([8]; human, SH-SY5Y cells) [µM]	Activity [9] [%]	IC50 ([8]; sh-sy5y) [µM]
50	40	Active	Active	59	40	Active	Active	CC(=O)c1cc2ccccc2oc1=O [3-ACETYLCOUMARIN]	75	77	–
–	–	–	–	–	–	Active	–	Oc1c(I)cc(Cl)c2cccnc12	–	–	–
80	53	Active	Active	78	86	Active	Active	C/C(=N\NC(N)=S)c1cc2ccccc2oc1=O	–	95	≤ 185
